The source made the active and inactive calls. No rule for the calls is given here.
Tested on: CCRIS mutagenicity, Ames/micronucleus/aberration tests
Assay: CCRIS mutagenicity studies
[1] = Test System: AMES SALMONELLA TYPHIMURIUM, Strain/Indicator: TA98, Metabolic Activation: NONE, Method: PREINCUBATION
[2] = Test System: AMES SALMONELLA TYPHIMURIUM, Strain/Indicator: TA100, Metabolic Activation: NONE, Method: PREINCUBATION
[3] = Test System: AMES SALMONELLA TYPHIMURIUM, Strain/Indicator: TA98, Metabolic Activation: NONE, Method: STANDARD PLATE
[4] = Test System: AMES SALMONELLA TYPHIMURIUM, Strain/Indicator: TA100, Metabolic Activation: NONE, Method: STANDARD PLATE

Structure (SMILES): O=C(O)c1ccccc1Cl
- mutagenic call (Test System: AMES SALMONELLA TYPHIMURIUM, Strain/Indicator: TA97, Metabolic Activation: HAMSTER, LIVER, S-9, AROCLOR 1254 (10 OR 30%), Method: PREINCUBATION): inactive; negative
- mutagenic call (Test System: AMES SALMONELLA TYPHIMURIUM, Strain/Indicator: TA97, Metabolic Activation: NONE, Method: PREINCUBATION): inactive; negative
- mutagenic call (Test System: AMES SALMONELLA TYPHIMURIUM, Strain/Indicator: TA97, Metabolic Activation: RAT, LIVER, S-9, AROCLOR 1254 (10 OR 30%), Method: PREINCUBATION): inactive; negative
- mutagenic call (Test System: AMES SALMONELLA TYPHIMURIUM, Strain/Indicator: TA98, Metabolic Activation: HAMSTER, LIVER, S-9, AROCLOR 1254 (10 OR 30%), Method: PREINCUBATION): inactive; negative
- mutagenic call [1]: inactive; negative
- mutagenic call (Test System: AMES SALMONELLA TYPHIMURIUM, Strain/Indicator: TA98, Metabolic Activation: RAT LIVER S-9, PCB, Method: PREINCUBATION): inactive; negative
- mutagenic call (Test System: AMES SALMONELLA TYPHIMURIUM, Strain/Indicator: TA98, Metabolic Activation: RAT LIVER S-9, PHENOBARBITAL AND BETA-NAPHTHOFLAVONE, Method: PREINCUBATION): inactive; negative
- mutagenic call (Test System: AMES SALMONELLA TYPHIMURIUM, Strain/Indicator: TA98, Metabolic Activation: RAT, LIVER, S-9, AROCLOR 1254 (10 OR 30%), Method: PREINCUBATION): inactive; negative
- mutagenic call (Test System: AMES SALMONELLA TYPHIMURIUM, Strain/Indicator: TA100, Metabolic Activation: HAMSTER, LIVER, S-9, AROCLOR 1254 (10 OR 30%), Method: PREINCUBATION): inactive; negative
- mutagenic call [2]: inactive; negative
- mutagenic call (Test System: AMES SALMONELLA TYPHIMURIUM, Strain/Indicator: TA100, Metabolic Activation: RAT LIVER S-9, PCB, Method: PREINCUBATION): inactive; negative
- mutagenic call (Test System: AMES SALMONELLA TYPHIMURIUM, Strain/Indicator: TA100, Metabolic Activation: RAT LIVER S-9, PHENOBARBITAL AND BETA-NAPHTHOFLAVONE, Method: PREINCUBATION): inactive; negative
- mutagenic call (Test System: AMES SALMONELLA TYPHIMURIUM, Strain/Indicator: TA100, Metabolic Activation: RAT, LIVER, S-9, AROCLOR 1254 (10 OR 30%), Method: PREINCUBATION): inactive; negative
- mutagenic call (Test System: AMES SALMONELLA TYPHIMURIUM, Strain/Indicator: TA104, Metabolic Activation: NONE, Method: PREINCUBATION): inactive; negative
- mutagenic call (Test System: AMES SALMONELLA TYPHIMURIUM, Strain/Indicator: TA104, Metabolic Activation: RAT LIVER S-9, PCB, Method: PREINCUBATION): inactive; negative
- mutagenic call (Test System: AMES SALMONELLA TYPHIMURIUM, Strain/Indicator: TA1535, Metabolic Activation: HAMSTER, LIVER, S-9, AROCLOR 1254 (10 OR 30%), Method: PREINCUBATION): inactive; negative
- mutagenic call (Test System: AMES SALMONELLA TYPHIMURIUM, Strain/Indicator: TA1535, Metabolic Activation: NONE, Method: PREINCUBATION): inactive; negative
- mutagenic call (Test System: AMES SALMONELLA TYPHIMURIUM, Strain/Indicator: TA1535, Metabolic Activation: RAT LIVER S-9, PHENOBARBITAL AND BETA-NAPHTHOFLAVONE, Method: PREINCUBATION): inactive; negative
- mutagenic call (Test System: AMES SALMONELLA TYPHIMURIUM, Strain/Indicator: TA1535, Metabolic Activation: RAT, LIVER, S-9, AROCLOR 1254 (10 OR 30%), Method: PREINCUBATION): inactive; negative
- mutagenic call (Test System: AMES SALMONELLA TYPHIMURIUM, Strain/Indicator: TA1537, Metabolic Activation: HAMSTER, LIVER, S-9, AROCLOR 1254 (30%), Method: PREINCUBATION): inactive; negative
- mutagenic call (Test System: AMES SALMONELLA TYPHIMURIUM, Strain/Indicator: TA1537, Metabolic Activation: NONE, Method: PREINCUBATION): inactive; negative
- mutagenic call (Test System: AMES SALMONELLA TYPHIMURIUM, Strain/Indicator: TA1537, Metabolic Activation: RAT LIVER S-9, PHENOBARBITAL AND BETA-NAPHTHOFLAVONE, Method: PREINCUBATION): inactive; negative
- mutagenic call (Test System: AMES SALMONELLA TYPHIMURIUM, Strain/Indicator: TA1537, Metabolic Activation: RAT, LIVER, S-9, AROCLOR 1254 (30%), Method: PREINCUBATION): inactive; negative
- mutagenic call (Test System: AMES SALMONELLA TYPHIMURIUM, Strain/Indicator: TA1538, Metabolic Activation: NONE, Method: PREINCUBATION): inactive; negative
- mutagenic call (Test System: AMES SALMONELLA TYPHIMURIUM, Strain/Indicator: TA1538, Metabolic Activation: RAT LIVER S-9, PHENOBARBITAL AND BETA-NAPHTHOFLAVONE, Method: PREINCUBATION): inactive; negative
- mutagenic call (Test System: E.COLI, Strain/Indicator: WP2 UVRA, Metabolic Activation: NONE, Method: PREINCUBATION): inactive; negative
- mutagenic call (Test System: E.COLI, Strain/Indicator: WP2UVRA, Metabolic Activation: NONE, Method: PREINCUBATION): inactive; negative
- mutagenic call (Test System: E.COLI, Strain/Indicator: WP2 UVRA, Metabolic Activation: RAT LIVER S-9, PCB, Method: PREINCUBATION): inactive; negative
- mutagenic call (Test System: E.COLI, Strain/Indicator: WP2UVRA, Metabolic Activation: RAT LIVER S-9, PHENOBARBITAL AND BETA-NAPHTHOFLAVONE, Method: PREINCUBATION): inactive; negative

Structure (SMILES): Cc1nc2ccc(N)c(C)c2nc1C
- mutagenic call [1]: inactive; negative
- mutagenic call (Test System: AMES SALMONELLA TYPHIMURIUM, Strain/Indicator: TA98, Metabolic Activation: RAT, LIVER, S-9, PCB, Method: PREINCUBATION): active; positive
- mutagenic call [2]: inactive; negative
- mutagenic call (Test System: AMES SALMONELLA TYPHIMURIUM, Strain/Indicator: TA100, Metabolic Activation: RAT, LIVER, S-9, PCB, Method: PREINCUBATION): active; positive

Structure (SMILES): C[C@@H]1O[C@@H](OC[C@H]2O[C@@H](Oc3c(-c4ccc(OCCO)c(OCCO)c4)oc4cc(OCCO)cc(O)c4c3=O)[C@H](O)[C@@H](O)[C@@H]2O)[C@H](O)[C@H](O)[C@H]1O
- mutagenic call [3]: inactive; negative
- mutagenic call (Test System: AMES SALMONELLA TYPHIMURIUM, Strain/Indicator: TA98, Metabolic Activation: RAT, LIVER, S-9, AROCLOR 1254, Method: STANDARD PLATE): inactive; negative
- mutagenic call [4]: inactive; negative
- mutagenic call (Test System: AMES SALMONELLA TYPHIMURIUM, Strain/Indicator: TA100, Metabolic Activation: RAT, LIVER, S-9, AROCLOR 1254, Method: STANDARD PLATE): inactive; negative
- mutagenic call (Test System: AMES SALMONELLA TYPHIMURIUM, Strain/Indicator: TA1535, Metabolic Activation: NONE, Method: STANDARD PLATE): inactive; negative
- mutagenic call (Test System: AMES SALMONELLA TYPHIMURIUM, Strain/Indicator: TA1535, Metabolic Activation: RAT, LIVER, S-9, AROCLOR 1254, Method: STANDARD PLATE): inactive; negative
- mutagenic call (Test System: AMES SALMONELLA TYPHIMURIUM, Strain/Indicator: TA1537, Metabolic Activation: NONE, Method: STANDARD PLATE): inactive; negative
- mutagenic call (Test System: AMES SALMONELLA TYPHIMURIUM, Strain/Indicator: TA1537, Metabolic Activation: RAT, LIVER, S-9, AROCLOR 1254, Method: STANDARD PLATE): inactive; negative
- mutagenic call (Test System: AMES SALMONELLA TYPHIMURIUM, Strain/Indicator: TA1538, Metabolic Activation: NONE, Method: STANDARD PLATE): inactive; negative
- mutagenic call (Test System: AMES SALMONELLA TYPHIMURIUM, Strain/Indicator: TA1538, Metabolic Activation: RAT, LIVER, S-9, AROCLOR 1254, Method: STANDARD PLATE): inactive; negative

Structure (SMILES): c1ccc2cnccc2c1
- mutagenic call [1]: inactive; negative
- mutagenic call (Test System: AMES SALMONELLA TYPHIMURIUM, Strain/Indicator: TA98, Metabolic Activation: RAT, LIVER, S-9, Method: PREINCUBATION): inactive; negative
- mutagenic call [2]: inactive; negative
- mutagenic call (Test System: AMES SALMONELLA TYPHIMURIUM, Strain/Indicator: TA100, Metabolic Activation: RAT, LIVER, S-9, Method: PREINCUBATION): inactive; negative

Structure (SMILES): [N-]=[N+]=NCC[C@H](N)C(=O)O
- mutagenic call (Test System: AMES SALMONELLA TYPHIMURIUM, Strain/Indicator: TA1530, Metabolic Activation: NONE, Method: STANDARD PLATE): active; positive

Structure (SMILES): COc1cc2c(c3oc4cccc(OC(C)=O)c4c(=O)c13)C1C=COC1O2 (stereo not given)
- mutagenic call (Test System: AMES SALMONELLA TYPHIMURIUM, Strain/Indicator: TA98, Metabolic Activation: RAT, LIVER, S-9, PHENOBARBITAL, Method: STANDARD PLATE): inactive; negative
- mutagenic call (Test System: AMES SALMONELLA TYPHIMURIUM, Strain/Indicator: TA100, Metabolic Activation: RAT, LIVER, S-9, PHENOBARBITAL, Method: STANDARD PLATE): active; positive

Structure (SMILES): Cc1cc(N)c(C)c2c1[nH]c1ccc(O)cc12
- mutagenic call [3]: inactive; negative
- mutagenic call (Test System: AMES SALMONELLA TYPHIMURIUM, Strain/Indicator: TA98, Metabolic Activation: RAT LIVER S-9, AROCLOR 1254, Method: STANDARD PLATE): active; positive
- mutagenic call [4]: inactive; negative
- mutagenic call (Test System: AMES SALMONELLA TYPHIMURIUM, Strain/Indicator: TA100, Metabolic Activation: RAT LIVER S-9, AROCLOR 1254, Method: STANDARD PLATE): inactive; negative

Structure (SMILES): O=C1C=C(Cl)C(=O)C1(Cl)Cl
- mutagenic call [4]: active; positive

Reference: PubChem BioAssay AID1259407 (Chemical Carcinogenesis Research Information System (CCRIS), 2018)
